Assay results: PubChem BioAssay (NCI)
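Cells were grown in 96-well plates and exposed to each compound for 48 hours at five concentrations; endpoints were interpolated linearly between bracketing concentrations, or set to the highest concentration if not reached. The concentration for 50% growth inhibition is given as GI50. TGI marks complete inhibition of growth.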

Legend:
Assay in all cases: DTP human tumour cell line panel, 48 h
M14 melanoma = test system: M14 melanoma
SF-295 CNS = test system: SF-295 CNS
OVCAR-5 ovarian = test system: OVCAR-5 ovarian
SW-620 colon = test system: SW-620 colon
RPMI-8226 leukemia = test system: RPMI-8226 leukemia
SK-MEL-5 melanoma = test system: SK-MEL-5 melanoma
OVCAR-8 ovarian = test system: OVCAR-8 ovarian
MCF7 breast = test system: MCF7 breast
HS 578T breast = test system: HS 578T breast
DU-145 prostate = test system: DU-145 prostate

SMILES: CC(C)=CC(=O)c1c(C(=O)O)nc2ccccc2[n+]1[O-]
- TGI (M14 melanoma): > 100 µM
- TGI (SF-295 CNS): > 100 µM
- TGI (OVCAR-5 ovarian): > 100 µM
- TGI (SW-620 colon): > 100 µM
- TGI (RPMI-8226 leukemia): > 100 µM
- TGI (SK-MEL-5 melanoma): > 100 µM

SMILES: CC1(Cl)CC(C)(/C=C/Cl)C(Cl)CC1Cl (centres undefined)
- TGI (M14 melanoma): 31.2 µM
- TGI (SF-295 CNS): 28.5 µM
- TGI (OVCAR-5 ovarian): 34.2 µM
- TGI (SW-620 colon): 30.8 µM
- TGI (OVCAR-8 ovarian): 31.3 µM
- TGI (SK-MEL-5 melanoma): 30.2 µM

SMILES: C(=C\c1c2oc(-c3ccccc3)cc(-c3ccccc3)c-2c2ccccc12)/C=C1\c2ccccc2-c2c(-c3ccccc3)cc(-c3ccccc3)[o+]c21
- TGI (M14 melanoma): > 100 µM
- TGI (SF-295 CNS): > 100 µM
- TGI (OVCAR-5 ovarian): > 100 µM
- TGI (SW-620 colon): > 100 µM
- TGI (OVCAR-8 ovarian): > 100 µM
- TGI (RPMI-8226 leukemia): > 100 µM
- TGI (SK-MEL-5 melanoma): > 100 µM

SMILES: CCN(CC)CCNc1ccc([N+](=O)[O-])c2sc3cc(Cl)ccc3c(=O)c12
- GI50 (M14 melanoma): 3.1 µM
- TGI (M14 melanoma): > 100 µM
- GI50 (SF-295 CNS): 6.27 µM
- TGI (SF-295 CNS): > 100 µM
- GI50 (SW-620 colon): 2.33 µM
- TGI (SW-620 colon): 27.8 µM
- GI50 (MCF7 breast): 3.28 µM
- TGI (MCF7 breast): > 100 µM
- GI50 (RPMI-8226 leukemia): 2.32 µM
- TGI (RPMI-8226 leukemia): 6.55 µM
- GI50 (HS 578T breast): 4.41 µM
- TGI (HS 578T breast): 37.1 µM
- GI50 (DU-145 prostate): 7.68 µM
- TGI (DU-145 prostate): 25.1 µM
- GI50 (SK-MEL-5 melanoma): 3.59 µM
- TGI (SK-MEL-5 melanoma): > 100 µM

SMILES: COc1cc2c(cc1OCCCOc1ccc(-c3cc4ccccc4c4ccccc34)cc1)N=C[C@@H]1CCCN1C2=O
- GI50 (OVCAR-5 ovarian): 0.487 µM
- TGI (OVCAR-5 ovarian): 0.995 µM
- GI50 (SW-620 colon): 0.513 µM
- TGI (SW-620 colon): 1.86 µM
- GI50 (OVCAR-8 ovarian): 0.425 µM
- TGI (OVCAR-8 ovarian): 1.98 µM
- GI50 (MCF7 breast): 0.172 µM
- TGI (MCF7 breast): 0.971 µM
- GI50 (HS 578T breast): 0.645 µM
- TGI (HS 578T breast): 3.11 µM
- GI50 (DU-145 prostate): 0.385 µM
- TGI (DU-145 prostate): 1.42 µM
- GI50 (SK-MEL-5 melanoma): 1.24 µM
- TGI (SK-MEL-5 melanoma): 2.49 µM

SMILES: S=c1[nH]nc(CCCCCCCCc2n[nH]c(=S)o2)o1
- TGI (M14 melanoma): > 100 µM
- TGI (SF-295 CNS): > 100 µM
- TGI (OVCAR-5 ovarian): > 100 µM
- TGI (SW-620 colon): > 100 µM
- TGI (OVCAR-8 ovarian): > 100 µM
- TGI (MCF7 breast): > 100 µM
- TGI (DU-145 prostate): > 100 µM
- TGI (SK-MEL-5 melanoma): > 100 µM

SMILES: CCCCCCCCCCCCC1N=C(N)N2CCCC2=C1C(=O)OC (centres undefined)
- TGI (M14 melanoma): 3.16 µM
- TGI (SF-295 CNS): 3.39 µM
- TGI (OVCAR-5 ovarian): 13 µM
- TGI (SW-620 colon): 3.05 µM
- TGI (OVCAR-8 ovarian): 3.37 µM
- TGI (HS 578T breast): 4.17 µM
- TGI (DU-145 prostate): 21.4 µM
- TGI (SK-MEL-5 melanoma): 4.88 µM

SMILES: COc1cccc(CCCNC(=O)Cc2ccccc2CO)c1
- TGI (M14 melanoma): > 100 µM
- TGI (SF-295 CNS): > 100 µM
- TGI (OVCAR-5 ovarian): > 100 µM
- TGI (SW-620 colon): > 100 µM
- TGI (OVCAR-8 ovarian): > 100 µM
- TGI (MCF7 breast): > 100 µM
- TGI (HS 578T breast): > 100 µM
- TGI (DU-145 prostate): > 100 µM
- TGI (SK-MEL-5 melanoma): > 100 µM

SMILES: C/C(Nc1ccc(Cl)cc1)=C1/CCOC1=O
- TGI (M14 melanoma): > 100 µM
- TGI (SF-295 CNS): > 100 µM
- TGI (OVCAR-5 ovarian): > 100 µM
- TGI (SW-620 colon): > 100 µM
- TGI (OVCAR-8 ovarian): > 100 µM
- TGI (MCF7 breast): > 100 µM
- TGI (RPMI-8226 leukemia): 60.3 µM
- TGI (HS 578T breast): > 100 µM
- TGI (DU-145 prostate): > 100 µM

SMILES: COC(=O)C(NC(=O)c1ccccc1)C(c1c(O)cc(O)cc1O)P(=O)(OC)OC (centres undefined)
- TGI (M14 melanoma): > 100 µM
- TGI (SF-295 CNS): > 100 µM
- TGI (OVCAR-5 ovarian): > 100 µM
- TGI (SW-620 colon): > 100 µM
- TGI (OVCAR-8 ovarian): > 100 µM
- TGI (RPMI-8226 leukemia): > 100 µM
- TGI (SK-MEL-5 melanoma): > 100 µM

SMILES: O=C(O)C1(C(O)c2ccccc2)SCCCS1 (centres undefined)
- TGI (M14 melanoma): > 10 µM
- TGI (SF-295 CNS): > 10 µM
- TGI (OVCAR-5 ovarian): > 10 µM
- TGI (SW-620 colon): > 10 µM
- TGI (OVCAR-8 ovarian): > 10 µM
- TGI (MCF7 breast): > 10 µM
- TGI (HS 578T breast): > 10 µM
- TGI (DU-145 prostate): > 10 µM
- TGI (SK-MEL-5 melanoma): > 10 µM
